{"source": "paper PMC5218480", "about": "(PLoS ONE, 2017)", "tested_on": "MV-4-11 cells", "assay": "Gene expression microarray analysis (Affymetrix PrimeView) and GSEA", "format": "cell-based, human", "design": "RFU PODN (11730768_x_at) / Fold change /veh PODN (11730768_x_at) / RFU LINC00158 (11744669_a_at) / Fold change /veh LINC00158 (11744669_a_at) / RFU DUSP10 (11751237_a_at) / Fold change /veh DUSP10 (11751237_a_at) / RFU ID3 (11757404_x_at) / Fold change /veh ID3 (11757404_x_at) / RFU PLEKHG5 (11737974_s_at) / Fold change /veh PLEKHG5 (11737974_s_at) / RFU LRRC4B (11730491_at) / Fold change /veh LRRC4B (11730491_at) / RFU GIMAP4 (11747438_a_at) / Fold change /veh GIMAP4 (11747438_a_at) / RFU KRT8 (11758183_x_at) / Fold change /veh KRT8 (11758183_x_at) / RFU CNN1 (11734310_a_at) / Fold change /veh CNN1 (11734310_a_at) / RFU VPS37D (11726825_at) / Fold change /veh VPS37D (11726825_at) / RFU C10orf10 (11716522_x_at) / Fold change /veh C10orf10 (11716522_x_at) / RFU KIR2DL2 /// KIR2DL4 /// KIR2DL5A /// KIR2DL5B /// KIR2DS1 /// KIR2DS2 /// KIR2DS3 /// KIR2DS4 /// KIR3DL3 /// KIR3DL3 /// KIR3DS1 (11738374_at) / Fold change /veh KIR2DL2 /// KIR2DL4 /// KIR2DL5A /// KIR2DL5B /// KIR2DS1 /// KIR2DS2 /// KIR2DS3 /// KIR2DS4 /// KIR3DL3 /// KIR3DL3 /// KIR3DS1 (11738374_at) / RFU C1QL1 (11718748_at) / Fold change /veh C1QL1 (11718748_at) / RFU TMPRSS4 (11747572_a_at) / Fold change /veh TMPRSS4 (11747572_a_at) / RFU HAMP (11756126_x_at) / Fold change /veh HAMP (11756126_x_at) / RFU RNFT2 (11725882_a_at) / Fold change /veh RNFT2 (11725882_a_at) / RFU NR4A2 (11747474_a_at) / Fold change /veh NR4A2 (11747474_a_at) / RFU ABCC12 (11746883_a_at) / Fold change /veh ABCC12 (11746883_a_at) / RFU TMEM136 (11760407_x_at) / Fold change /veh TMEM136 (11760407_x_at) / RFU CLDN22 /// WWC2 (11732394_at) / Fold change /veh CLDN22 /// WWC2 (11732394_at) / RFU HLA-DPB1 (11760878_x_at) / Fold change /veh HLA-DPB1 (11760878_x_at) / RFU SPINT1 (11716480_a_at) / Fold change /veh SPINT1 (11716480_a_at) / RFU GAP43 (11754022_s_at) / Fold change /veh GAP43 (11754022_s_at) / RFU A4GNT (11735810_at) / Fold change /veh A4GNT (11735810_at) / RFU PRB3 (11715151_x_at) / Fold change /veh PRB3 (11715151_x_at) / RFU TUBB4B (11761932_at) / Fold change /veh TUBB4B (11761932_at) / RFU CAPN14 (11732068_a_at) / Fold change /veh CAPN14 (11732068_a_at) / RFU TMCC2 (11721928_a_at) / Fold change /veh TMCC2 (11721928_a_at) / RFU IRGQ (11745062_a_at) / Fold change /veh IRGQ (11745062_a_at) / RFU FAM174B (11720279_a_at) / Fold change /veh FAM174B (11720279_a_at) / RFU TMPRSS4 (11748680_a_at) / Fold change /veh TMPRSS4 (11748680_a_at) / RFU FAM212B (11763350_a_at) / Fold change /veh FAM212B (11763350_a_at) / RFU PLEKHG5 (11743358_a_at) / Fold change /veh PLEKHG5 (11743358_a_at) / RFU ZSCAN30 (11745921_a_at) / Fold change /veh ZSCAN30 (11745921_a_at) / RFU CMKLR1 (11741424_a_at) / Fold change /veh CMKLR1 (11741424_a_at) / RFU LOC101060620 /// MAPK8IP1 (11723275_at) / Fold change /veh LOC101060620 /// MAPK8IP1 (11723275_at) / RFU SPTSSB (11747773_x_at) / Fold change /veh SPTSSB (11747773_x_at) / RFU PRSS12 (11739890_at) / Fold change /veh PRSS12 (11739890_at) / RFU BIN1 (11741810_x_at) / Fold change /veh BIN1 (11741810_x_at) / RFU WNT11 (11732464_a_at) / Fold change /veh WNT11 (11732464_a_at) / RFU C10orf10 (11716521_a_at) / Fold change /veh C10orf10 (11716521_a_at) / RFU C5orf56 (11738089_at) / Fold change /veh C5orf56 (11738089_at) / RFU CYB561 (11721691_x_at) / Fold change /veh CYB561 (11721691_x_at) / RFU ANKRD19P (11752326_a_at) / Fold change /veh ANKRD19P (11752326_a_at) / RFU OR2T12 /// OR2T33 /// OR2T8 (11738714_s_at) / Fold change /veh OR2T12 /// OR2T33 /// OR2T8 (11738714_s_at) / RFU VCAN (11748164_a_at) / Fold change /veh VCAN (11748164_a_at) / RFU JSRP1 (11732532_at) / Fold change /veh JSRP1 (11732532_at) / RFU KRTAP10-11 (11738290_x_at) / Fold change /veh KRTAP10-11 (11738290_x_at) / RFU MYO3A (11730013_a_at) / Fold change /veh MYO3A (11730013_a_at) / RFU EBF3 (11725865_a_at) / Fold change /veh EBF3 (11725865_a_at) / RFU CAMK2N1 (11719241_x_at) / Fold change /veh CAMK2N1 (11719241_x_at) / RFU C5orf56 (11738088_a_at) / Fold change /veh C5orf56 (11738088_a_at) / RFU OLFML3 (11715873_a_at) / Fold change /veh OLFML3 (11715873_a_at) / RFU LOC100653217 /// NTM (11731650_a_at) / Fold change /veh LOC100653217 /// NTM (11731650_a_at) / RFU MAPK11 (11762145_a_at) / Fold change /veh MAPK11 (11762145_a_at) / RFU FIZ1 (11724087_x_at) / Fold change /veh FIZ1 (11724087_x_at) / RFU OASL (11726364_x_at) / Fold change /veh OASL (11726364_x_at) / RFU SOX15 (11748057_x_at) / Fold change /veh SOX15 (11748057_x_at) / RFU CD79A (11719716_a_at) / Fold change /veh CD79A (11719716_a_at) / RFU HIST1H1D (11736915_at) / Fold change /veh HIST1H1D (11736915_at) / RFU CASKIN2 (11723855_a_at) / Fold change /veh CASKIN2 (11723855_a_at) / RFU LOC730098 (11760151_x_at) / Fold change /veh LOC730098 (11760151_x_at) / RFU OR4N2 (11742367_at) / Fold change /veh OR4N2 (11742367_at) / RFU PRRT2 (11749266_a_at) / Fold change /veh PRRT2 (11749266_a_at) / RFU SNX32 (11753110_a_at) / Fold change /veh SNX32 (11753110_a_at) / RFU CDHR5 (11726645_a_at) / Fold change /veh CDHR5 (11726645_a_at) / RFU RCAN1 (11760418_a_at) / Fold change /veh RCAN1 (11760418_a_at) / RFU FAM167A (11723789_a_at) / Fold change /veh FAM167A (11723789_a_at) / RFU FAM26E (11764081_at) / Fold change /veh FAM26E (11764081_at) / RFU ISYNA1 (11749810_s_at) / Fold change /veh ISYNA1 (11749810_s_at) / RFU ACY1 (11761880_at) / Fold change /veh ACY1 (11761880_at) / RFU 11764098_at / Fold change /veh 11764098_at / RFU SAMD14 (11745864_x_at) / Fold change /veh SAMD14 (11745864_x_at) / RFU NPB (11741838_a_at) / Fold change /veh NPB (11741838_a_at) / RFU TMPRSS6 (11731388_a_at) / Fold change /veh TMPRSS6 (11731388_a_at) / RFU KRTAP10-2 (11738614_at) / Fold change /veh KRTAP10-2 (11738614_at) / RFU ARHGAP8 /// PRR5-ARHGAP8 (11727945_x_at) / Fold change /veh ARHGAP8 /// PRR5-ARHGAP8 (11727945_x_at) / RFU KRTAP5-7 /// NADSYN1 (11734609_at) / Fold change /veh KRTAP5-7 /// NADSYN1 (11734609_at) / RFU RASL12 (11751679_a_at) / Fold change /veh RASL12 (11751679_a_at) / RFU CDKN2B (11736163_a_at) / Fold change /veh CDKN2B (11736163_a_at) / RFU PRF1 (11729649_at) / Fold change /veh PRF1 (11729649_at) / RFU, ZNF638 /// ZNF638-IT1 / Fold change vs veh, ZNF638 /// ZNF638-IT1 / RFU, PANK3 / Fold change vs veh, PANK3 / RFU, SH3YL1 / Fold change vs veh, SH3YL1 / RFU, ZEB2 / Fold change vs veh, ZEB2 / RFU, NRIP1 / Fold change vs veh, NRIP1 / RFU, PTTG1IP / Fold change vs veh, PTTG1IP / RFU, CAPN2 / Fold change vs veh, CAPN2 / RFU, MED14 / Fold change vs veh, MED14 / RFU, SNORA58 / Fold change vs veh, SNORA58 / RFU, C1orf63 / Fold change vs veh, C1orf63 / RFU, LRRFIP1 / Fold change vs veh, LRRFIP1 / RFU, NDUFAF7 / Fold change vs veh, NDUFAF7 / RFU, SLC12A2 / Fold change vs veh, SLC12A2 / RFU, IBTK / Fold change vs veh, IBTK / RFU, ESF1 / Fold change vs veh, ESF1 / Fold change vs veh, TMEM50B / RFU, TAOK1 / Fold change vs veh, TAOK1 / RFU, ACBD3 / Fold change vs veh, ACBD3 / RFU, TMA16 / Fold change vs veh, TMA16 / RFU, RWDD3 / Fold change vs veh, RWDD3 / RFU, BCAT1 / Fold change vs veh, BCAT1 / RFU, EDEM3 / Fold change vs veh, EDEM3 / RFU, TMEM33 / Fold change vs veh, TMEM33 / RFU, WDR75 / Fold change vs veh, WDR75 / RFU, AHCTF1 / Fold change vs veh, AHCTF1 / RFU, TFRC / Fold change vs veh, TFRC / RFU, ZDHHC17 / Fold change vs veh, ZDHHC17 / RFU, NOM1 / Fold change vs veh, NOM1 / RFU, ARL8B / Fold change vs veh, ARL8B / RFU, ZBTB11 / Fold change vs veh, ZBTB11 / RFU, TAMM41 / Fold change vs veh, TAMM41 / RFU, KIAA1704 /// LOC100996395 / Fold change vs veh, KIAA1704 /// LOC100996395 / RFU, ING1 / Fold change vs veh, ING1 / RFU, TRMT61B / Fold change vs veh, TRMT61B / RFU, FUBP3 / Fold change vs veh, FUBP3 / RFU, TP53 / Fold change vs veh, TP53 / RFU, TNKS2 / Fold change vs veh, TNKS2 / RFU, ZFP14 / Fold change vs veh, ZFP14 / RFU, ACTR2 / Fold change vs veh, ACTR2 / RFU, PPP3R1 / Fold change vs veh, PPP3R1 / RFU, PIK3R1 / Fold change vs veh, PIK3R1 / RFU, HNRNPA1 / Fold change vs veh, HNRNPA1 / RFU, RNF170 / Fold change vs veh, RNF170 / RFU, ZNF28 / Fold change vs veh, ZNF28 / RFU, RNGTT / Fold change vs veh, RNGTT / RFU, OGT / Fold change vs veh, OGT / RFU, BRD1 / Fold change vs veh, BRD1 / RFU, MARS / Fold change vs veh, MARS / RFU, ZNF655 / Fold change vs veh, ZNF655 / RFU, FAHD1 / Fold change vs veh, FAHD1 / RFU, BDP1 / Fold change vs veh, BDP1 / RFU, LRRCC1 / Fold change vs veh, LRRCC1 / RFU, ARID1A / Fold change vs veh, ARID1A / RFU, ZNF146 / Fold change vs veh, ZNF146 / RFU, ZNF330 / Fold change vs veh, ZNF330 / RFU, GPN3 / Fold change vs veh, GPN3 / RFU, C9orf123 / Fold change vs veh, C9orf123 / RFU, N4BP2L2 / Fold change vs veh, N4BP2L2 / RFU, ARFIP1 / Fold change vs veh, ARFIP1 / RFU, FAM179B / Fold change vs veh, FAM179B / RFU, BCL10 / Fold change vs veh, BCL10 / RFU, UHRF1BP1L / Fold change vs veh, UHRF1BP1L / RFU, BET1 / Fold change vs veh, BET1 / RFU, CNOT2 / Fold change vs veh, CNOT2 / RFU, ZNF268 / Fold change vs veh, ZNF268 / Fold change vs veh, ZNF507 / RFU, DGCR2 / Fold change vs veh, DGCR2 / RFU, WDSUB1 / Fold change vs veh, WDSUB1 / Fold change vs veh, HSP90B1 /// MIR3652 / RFU, ADSS / Fold change vs veh, ADSS / RFU, GK / Fold change vs veh, GK / RFU, ZNF148 / Fold change vs veh, ZNF148 / RFU, TAF9 / Fold change vs veh, TAF9 / RFU, SLC1A5 / Fold change vs veh, SLC1A5 / RFU, SLMO2 / Fold change vs veh, SLMO2 / RFU, ABCC4 / Fold change vs veh, ABCC4 / RFU, LOC101060439 /// RAP1B / Fold change vs veh, LOC101060439 /// RAP1B / RFU, RFX7 / Fold change vs veh, RFX7 / RFU, GTPBP10 / Fold change vs veh, GTPBP10 / RFU, CNEP1R1 / Fold change vs veh, CNEP1R1 / RFU, BIVM-ERCC5 /// ERCC5 / Fold change vs veh, BIVM-ERCC5 /// ERCC5 / RFU, ILF3 / Fold change vs veh, ILF3 / RFU 11762660_at / Fold change /veh 11762660_at / RFU VCAN (11757783_s_at) / Fold change /veh VCAN (11757783_s_at) / RFU DDX43 (11728927_at) / Fold change /veh DDX43 (11728927_at) / RFU KRT8 (11758188_x_at) / Fold change /veh KRT8 (11758188_x_at) / RFU NKD1 (11759106_at) / Fold change /veh NKD1 (11759106_at) / RFU SRD5A1 (11742802_a_at) / Fold change /veh SRD5A1 (11742802_a_at) / RFU TPSAB1 /// TPSB2 (11721975_s_at) / Fold change /veh TPSAB1 /// TPSB2 (11721975_s_at) / RFU GSTM3 (11746129_a_at) / Fold change /veh GSTM3 (11746129_a_at) / RFU IL23R (11737362_x_at) / Fold change /veh IL23R (11737362_x_at) / RFU TMEM51 (11727254_a_at) / Fold change /veh TMEM51 (11727254_a_at) / RFU PIWIL2 (11732686_x_at) / Fold change /veh PIWIL2 (11732686_x_at) / RFU ORM1 (11744905_x_at) / Fold change /veh ORM1 (11744905_x_at) / RFU CCDC152 (11743942_at) / Fold change /veh CCDC152 (11743942_at) / RFU ECM1 (11717891_a_at) / Fold change /veh ECM1 (11717891_a_at) / RFU IL23R (11748794_a_at) / Fold change /veh IL23R (11748794_a_at) / RFU TNFAIP8L3 (11732012_x_at) / Fold change /veh TNFAIP8L3 (11732012_x_at) / RFU MBOAT4 (11741988_at) / Fold change /veh MBOAT4 (11741988_at) / RFU 11764193_at / Fold change /veh 11764193_at / RFU TMEM53 (11763286_at) / Fold change /veh TMEM53 (11763286_at) / RFU MAGEB2 (11727129_at) / Fold change /veh MAGEB2 (11727129_at) / RFU TMEM200A (11744735_a_at) / Fold change /veh TMEM200A (11744735_a_at) / RFU CCDC152 (11751479_a_at) / Fold change /veh CCDC152 (11751479_a_at) / RFU FAM211A (11726209_a_at) / Fold change /veh FAM211A (11726209_a_at) / RFU RGS16 (11746705_a_at) / Fold change /veh RGS16 (11746705_a_at) / RFU VCAN (11755009_s_at) / Fold change /veh VCAN (11755009_s_at) / RFU RHOB (11743442_s_at) / Fold change /veh RHOB (11743442_s_at) / RFU RGS16 (11720943_a_at) / Fold change /veh RGS16 (11720943_a_at) / RFU RGS16 (11720944_at) / Fold change /veh RGS16 (11720944_at) / RFU, VPS4B / Fold change vs veh, VPS4B / RFU, CREB1 / Fold change vs veh, CREB1 / RFU, DNAJC13 / Fold change vs veh, DNAJC13 / RFU, GNAQ / Fold change vs veh, GNAQ / RFU, CDK5R1 / Fold change vs veh, CDK5R1 / RFU, ZRANB3 / Fold change vs veh, ZRANB3 / RFU, CUL4A / Fold change vs veh, CUL4A / RFU, CCNY / Fold change vs veh, CCNY / RFU, UFL1 / Fold change vs veh, UFL1 / RFU, COG3 / Fold change vs veh, COG3 / RFU, DIAPH2 / Fold change vs veh, DIAPH2 / RFU, SKA2 / Fold change vs veh, SKA2 / RFU, AFF3 / Fold change vs veh, AFF3 / RFU, LMF1 / Fold change vs veh, LMF1 / RFU, IPO11 / Fold change vs veh, IPO11 / RFU, DFFB / Fold change vs veh, DFFB / RFU, FOXP1 / Fold change vs veh, FOXP1 / RFU, CARD8 / Fold change vs veh, CARD8 / RFU, STRN3 / Fold change vs veh, STRN3 / RFU, ADK / Fold change vs veh, ADK / RFU, RASSF2 / Fold change vs veh, RASSF2 / RFU, WIPF1 / Fold change vs veh, WIPF1 / RFU, LARP1B / Fold change vs veh, LARP1B / RFU, RASA1 / Fold change vs veh, RASA1 / RFU, RB1 / Fold change vs veh, RB1 / RFU, PPFIA1 / Fold change vs veh, PPFIA1 / RFU, MAT2A / Fold change vs veh, MAT2A / RFU, CCT5 / Fold change vs veh, CCT5 / RFU, WDR92 / Fold change vs veh, WDR92 / RFU, CUX1 / Fold change vs veh, CUX1 / RFU, TTC7A / Fold change vs veh, TTC7A / RFU, TMEM135 / Fold change vs veh, TMEM135 / RFU, DEPTOR / Fold change vs veh, DEPTOR / RFU, CPM / Fold change vs veh, CPM / RFU, DNAJB6 / Fold change vs veh, DNAJB6 / RFU, CACNA2D3 / Fold change vs veh, CACNA2D3 / RFU, DTX4 / Fold change vs veh, DTX4 / RFU, TFCP2 / Fold change vs veh, TFCP2 / RFU, GMCL1 /// GMCL1P1 / Fold change vs veh, GMCL1 /// GMCL1P1 / RFU, AEBP2 / Fold change vs veh, AEBP2 / RFU, SNHG1 /// SNORD22 /// SNORD25 /// SNORD26 /// SNORD27 /// SNORD28 /// SNORD29 /// SNORD31 / Fold change vs veh, SNHG1 /// SNORD22 /// SNORD25 /// SNORD26 /// SNORD27 /// SNORD28 /// SNORD29 /// SNORD31 / Fold change (Aza/veh), C12orf56 (ProbeSet 11735607_a_at) / Fold change (ACY-1035/veh), C12orf56 (ProbeSet 11735607_a_at) / Fold change (Aza/veh), FGFR1OP (ProbeSet 11751329_s_at) / Fold change (ACY-1035/veh), FGFR1OP (ProbeSet 11751329_s_at) / Fold change (Aza/veh), VPS36 (ProbeSet 11739960_a_at) / Fold change (ACY-1035/veh), VPS36 (ProbeSet 11739960_a_at) / RFU SYPL1 (11715823_x_at) / Fold change /veh SYPL1 (11715823_x_at) / RFU IGFBP7 (11715501_s_at) / Fold change /veh IGFBP7 (11715501_s_at) / RFU REEP3 (11722064_at) / Fold change /veh REEP3 (11722064_at) / RFU IGLL1 (11728026_x_at) / Fold change /veh IGLL1 (11728026_x_at): dose or concentration left out as unconfirmed", "settings": "ProbeSet 11755436_x_at; LIST B", "data": [{"smiles": "Nc1ccc(-c2cccs2)cc1NC(=O)c1ccc2c(c1)cc(C1CC1)n2CCN1CCOCC1", "note": "[ACY-1035]", "values": [{"measurement": "RFU, ARID1A", "value": 56.79, "unit": "RFU"}]}]}
